One experiment addresses T1, RORγt in HEK293T cells (Homo sapiens, UniProt P51449).
T1 sequence (P51449 1-497 isoform P51449-2): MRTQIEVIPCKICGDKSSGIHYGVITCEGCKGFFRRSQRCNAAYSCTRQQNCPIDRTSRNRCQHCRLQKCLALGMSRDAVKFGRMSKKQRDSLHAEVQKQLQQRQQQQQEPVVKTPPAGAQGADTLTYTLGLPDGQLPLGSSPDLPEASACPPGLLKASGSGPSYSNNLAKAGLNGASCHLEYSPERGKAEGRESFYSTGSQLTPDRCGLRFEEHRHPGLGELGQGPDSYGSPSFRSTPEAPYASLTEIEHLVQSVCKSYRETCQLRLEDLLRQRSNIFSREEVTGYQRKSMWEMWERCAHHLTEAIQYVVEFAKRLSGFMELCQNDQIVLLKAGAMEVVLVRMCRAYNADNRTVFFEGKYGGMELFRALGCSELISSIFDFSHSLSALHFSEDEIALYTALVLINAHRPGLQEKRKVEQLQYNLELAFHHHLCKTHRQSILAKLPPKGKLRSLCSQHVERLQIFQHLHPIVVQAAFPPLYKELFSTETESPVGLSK
The experiment is described as follows: Cellular thermal shift assay. It counts as cell-based. The following applies: HEK293T cells exogenously expressing RORγt, 60 μM, 2 h.

The test system of another experiment is spinal cord white matter. As to the kind of experiment: Histochemical analysis of spinal cords. It counts as in vivo. The following applies: EAE mice, 50 mg kg^−1 orally, LFB and H&E staining.
The subject of another experiment is IL-17A. As to the kind of experiment: ELISA of IL-17A in spinal cord and brain supernatant. It counts as in vivo. To be noted: EAE mice. For orientation: In an ELISA, binding on a coated surface is turned into a signal by an enzyme label.
Experiment [1] deals with blood–brain barrier (BBB). As to the kind of experiment: In vivo imaging of brain inflammation. To be noted: EAE mice, day 9 post-administration.
Another experiment addresses T2, human RORγt (Homo sapiens, UniProt P51449).
T2 sequence (P51449 97-516): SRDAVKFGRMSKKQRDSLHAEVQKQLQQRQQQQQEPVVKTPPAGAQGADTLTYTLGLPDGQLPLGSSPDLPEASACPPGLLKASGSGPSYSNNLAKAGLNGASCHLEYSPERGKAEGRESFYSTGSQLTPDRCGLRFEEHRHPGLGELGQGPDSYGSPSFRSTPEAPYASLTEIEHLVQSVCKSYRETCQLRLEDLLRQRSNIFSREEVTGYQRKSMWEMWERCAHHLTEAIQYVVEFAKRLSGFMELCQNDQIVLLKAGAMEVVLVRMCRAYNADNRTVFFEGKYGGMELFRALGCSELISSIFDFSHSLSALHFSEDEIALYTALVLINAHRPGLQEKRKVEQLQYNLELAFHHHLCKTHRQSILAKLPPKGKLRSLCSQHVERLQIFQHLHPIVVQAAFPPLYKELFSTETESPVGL
The experiment is described as follows: RORγt-GAL4 dual-luciferase reporter assay. It counts as cell-based. On the technique in general: Reporter assays use an easily measured gene product as a stand-in for the process of interest.

Experiment [2] has as its system experimental autoimmune encephalomyelitis (EAE). The experiment is described as follows: MOG35-55-induced EAE: clinical signs, disease onset, body weight. It is filed as in vivo, female C57BL/6 mice. The following applies: EAE mice; for EAE induced body weight loss: 50 mg kg^−1 orally every day from day 12; for mean disease onset date: 50 mg kg^−1 orally every day from day 12, n = 8.

Experiment [3] deals with T3, RORγt-LBD (Homo sapiens, UniProt P51449).
T3 sequence (P51449 262-518): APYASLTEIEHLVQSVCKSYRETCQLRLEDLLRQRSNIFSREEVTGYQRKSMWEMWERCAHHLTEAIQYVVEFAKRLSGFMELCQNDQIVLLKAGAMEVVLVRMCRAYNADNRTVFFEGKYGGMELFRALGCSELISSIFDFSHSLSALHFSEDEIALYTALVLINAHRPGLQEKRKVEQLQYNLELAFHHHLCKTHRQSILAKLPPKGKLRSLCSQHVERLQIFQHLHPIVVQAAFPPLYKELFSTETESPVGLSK
The experiment is described as follows: Intrinsic fluorescence-quenching based assay. It counts as binding. The following applies: RORγt-LBD 30 μM; compound 0-50 μM; excitation 280 nm.

The next experiment concerns TH17 cells. As to the kind of experiment: Flow cytometry of spleen cells of EAE mice. It is filed as in vivo. To be noted: CD4 and IL-17 dual-staining. (A flow cytometer gives signals particle by particle.)
Experiment [4] addresses T4, RORγt-LBD-SRC2.2 (Homo sapiens, UniProt P51449).
T4 sequence (P51449 with tags, fused parts or gaps): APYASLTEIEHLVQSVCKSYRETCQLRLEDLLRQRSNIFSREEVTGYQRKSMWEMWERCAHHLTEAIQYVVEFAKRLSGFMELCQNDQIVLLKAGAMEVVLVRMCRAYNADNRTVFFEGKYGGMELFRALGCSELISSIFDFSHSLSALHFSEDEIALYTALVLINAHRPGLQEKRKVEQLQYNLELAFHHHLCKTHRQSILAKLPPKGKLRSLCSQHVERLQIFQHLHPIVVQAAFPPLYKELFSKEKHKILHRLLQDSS
As to the kind of experiment: Drug affinity responsive target stability. It is filed as binding. To be noted: 60 μM protein, 40 °C, 10 min, dose-dependent.

Experiment [5] has as its target T4, RORγt-LBD-SRC2.2. The experiment is described as follows: Co-crystallization and X-ray structure determination. To be noted: resolution 1.99 Å.
Experiment [6] has as its target T3, RORγt-LBD. The experiment is described as follows: Isothermal titration calorimetry. It counts as binding.
A further experiment concerns the target T5, RORγt-LBD (262-518) (Homo sapiens, UniProt P51449).
T5 sequence (P51449 262-518): T3 sequence (P51449 262-518)
It counts as biochemical.

Experiment [7] relates to DOCA-salt-induced organ damage. To be noted: rats; by blocking the activation of TH17 cells; cited from earlier work.
A further experiment relates to prostate cancer. To be noted: cited from earlier work.
A further experiment addresses 5-lipoxygenase. To be noted: read-out: IC50, 5-lipoxygenase; cited from earlier work.
A further experiment deals with sigma 1 receptor. The following applies: cited from earlier work.
The subject of experiment [8] is AR. To be noted: read-out: IC50 in AR competitive binding assay; cited from earlier work.
Experiment [9] relates to AR. The following applies: read-out: IC50 in AR transcriptional assay; cited from earlier work.

The values below come from publication PMC8790893 (Chemical Science, 2021).

Read-outs that look alike come from different tables or passages of the source.

The term IC50 denotes the point on the concentration scale where inhibition reaches its midpoint. As a reminder, the Kd is the constant that tells how readily two partners part at equilibrium. Consider `C[C@H]1[C@H](C)CC[C@]2(C(=O)O)CC[C@]3(C)C(=CC[C@@H]4[C@@]5(C)CCC(=O)C(C)(C)[C@@H]5CC[C@]43C)[C@H]12` [ursonic acid, Ursonic Acid], for which the “Tm values of RORγt (CETSA)” value on RORγt in HEK293T cells is listed as “significantly increased”. Further, in the experiment with spinal cord white matter, the “immune cell infiltrations in white matter of spinal cords” value is “reduced”. Besides, the “IL-17A protein expression in brains and spinal cords” value in the experiment with IL-17A is recorded as “effectively reduced”. Also, in [1], the “EAE-induced BBB disruption (brain BSA-Cy5.5 accumulation)” value was “remitted the EAE-induced BBB disruption obviously”. The IC50 turned out to be 100 nM against human RORγt and 10 nM against RORγt-LBD (262-518). In addition, the “EAE induced body weight loss” value in experiment [2] was “significantly reversed”. In addition, the “mean disease onset date” value in experiment [2] stood at 17.3 ± 0.5 days. In addition, the “fluorescence quenching of RORγt-LBD” value on RORγt-LBD [3] is “dose-dependently induced fluorescence quenching”. For the same compound, the “frequency of pro-inflammatory TH17 cells in the spleen” value in the experiment on TH17 cells is reported as “reduced frequency”. Besides, the “proteolysis of RORγt-LBD-SRC2.2 by pronase E” value at RORγt-LBD-SRC2.2 [4] is given as “clearly decreased”. Further, the “binding site in the crystal structure (PDB code: 6J3N)” value at RORγt-LBD-SRC2.2 [5] is reported as “buried in the canonical orthosteric ligand pocket”. This compound also gave a dissociation constant Kd on RORγt-LBD [6] of 3040 nM.

Take `CC(=O)S[C@@H]1CC2=CC(=O)CC[C@]2(C)[C@H]2CC[C@@]3(C)[C@@H](CC[C@@]34CCC(=O)O4)[C@H]12` [Spironolactone]: in [7], the “effect on DOCA-salt-induced organ damage” value is recorded as “decrease DOCA-salt-induced organ damage”. The “effect on the incidence of prostate cancer” value with prostate cancer was “reduce the incidence of prostate cancer”.

As for `Oc1ccc(/C=C/c2cc(O)cc(O)c2)cc1` [resveratrol], the IC50 at 5-lipoxygenase is 4900 nM.

For the compound `CCN(CCO)CCCC(C)Nc1ccnc2cc(Cl)ccc12` (centres unmarked) [hydroxychloroquine], the “pKi, sigma 1 receptor” value at sigma 1 receptor is given as 6.9.

For the compound `CC1(C)CC[C@]2(C(=O)O)CC[C@]3(C)C(=CC[C@@H]4[C@@]5(C)CCC(=O)C(C)(C)[C@@H]5CC[C@]43C)[C@@H]2C1` [oleanonic acid, Oleanonic Acid], on RORγt in HEK293T cells, the “Tm values of RORγt (CETSA)” value is recorded as “significantly increased”. In the experiment on spinal cord white matter, the “immune cell infiltrations in white matter of spinal cords” value is listed as “reduced”. In addition, the “IL-17A protein expression in brains and spinal cords” value with IL-17A is listed as “effectively reduced”. Besides, the “EAE-induced BBB disruption (brain BSA-Cy5.5 accumulation)” value in [1] is recorded as “remitted the EAE-induced BBB disruption obviously”. In addition, in experiment [2], the “EAE induced body weight loss” value is given as “significantly reversed” and the “mean disease onset date” value is 15.3 ± 0.2 days. Further, the “fluorescence quenching of RORγt-LBD” value on RORγt-LBD [3] was “dose-dependently induced fluorescence quenching”. In the experiment with TH17 cells, the “frequency of pro-inflammatory TH17 cells in the spleen” value is given as “reduced frequency”. For the same compound, the “proteolysis of RORγt-LBD-SRC2.2 by pronase E” value on RORγt-LBD-SRC2.2 [4] is listed as “clearly decreased”. On RORγt-LBD [6], this compound showed a Kd of 1060 nM. Also, on RORγt-LBD (262-518), the IC50 amounted to 280 nM.

`C[C@]12CC[C@H](O)CC1=CC[C@@H]1[C@@H]2CC[C@]2(C)C(c3cccnc3)=CC[C@@H]12` [abiraterone, Abiraterone]: the IC50 in the experiment with AR [8] is 7.6 µM; in the experiment with AR [9], 9.4 µM.

In the case of `Oc1cc(O)cc(/C=C/c2ccc(O)c(O)c2)c1` [piceatannol], on 5-lipoxygenase, the IC50 is 240 nM.

For `CCN(CC)CCCC(C)Nc1ccnc2cc(Cl)ccc12` (centres unmarked) [chloroquine], the “pKi, sigma 1 receptor” value at sigma 1 receptor was 7.1.
